Where a SMILES comes first, the peptide text is derived from it. [ ]: non-standard residue; d: D form. ξ: configuration not given here. Aoe(9ξ) = N[C@@H](CCCCCC(=O)C1CO1)C(=O)O; dPip = O=C(O)[C@H]1CCCCN1

The test system of one test is PGRN-Luc. Description: HMC3 PGRN-luciferase reporter assay. Format: cell-based, human. The following applies: HMC3 PGRN-Luc cells, 20 h. How it is done:
HMC3 PGRN-Luc cells were trypsinized from confluent T-75 flasks and re-suspended in HMC-3 media at 150,000–200,000 cells/mL. 30 µL of cell suspension was then seeded onto each well of black, 384-well clear-bottom plates (Corning 3712) using the Multidrop Combi (Thermo Fisher). Cells were allowed to adhere to plates in the incubator at 37 °C/5% CO2 for 6–8 h. After 6–8 h, compounds were added to each well using the D300e (Tecan) compound dispenser, and all wells were DMSO-normalized (0.3%). Cells were allowed to incubate with compounds for indicated timeframes.
Plates were removed from the incubator and allowed to cool to RT. 15 µL of media was removed from each well using a multichannel pipette and added to separate Corning 3712 plates for a read of “secreted” PGRN. To both the media-containing plates as well as the cell-containing plates (with 15 µL media remaining) is then added 15 µL of active luminescence reagent (Thermo 18,636) which was generated according to manufacturer’s instructions. Plates were allowed to nutate at RT for 15 min prior to reading using the EnVision (PerkinElmer). For calculation of the internal PGRN-Luc signal, the secreted signal (15 µL media) was subtracted from the signal of the cell-containing plates (with 15 µL media remaining). For “total” PGRN-Luc signal, a sample of media was not aliquoted into a separate plate, and instead, 30 µL of active luminescence reagent was added directly to each well.
For the mivebresib and panobinostat time-course experiment, the above procedure was followed, with the exception that cells were seeded at 66,600 cells/mL in 30 µL media, and allowed to grow overnight prior to compound addition for the indicated timeframes.
Regarding `CC(/C=C/C(=O)NO)=C\[C@@H](C)C(=O)c1ccc(N(C)C)cc1` [trichostatin A], the “enhancement of internal PGRN-Luc signal” value is “able to enhance both internal and secreted PGRN at sub-µM concentrations”; the “enhancement of secreted PGRN-Luc signal” value is “able to enhance both internal and secreted PGRN at sub-µM concentrations”.

On to `O=C(CCCCC[C@@H]1NC(=O)[C@H]2CCCCN2C(=O)[C@H](Cc2ccccc2)NC(=O)[C@H](Cc2ccccc2)NC1=O)C1CO1` (stereo partly shown) [trapoxin A] (cyclo(FF[dPip][Aoe(9ξ)])), for which the “enhancement of internal PGRN-Luc signal” value was “able to enhance both internal and secreted PGRN at sub-µM concentrations”; the “enhancement of secreted PGRN-Luc signal” value was “able to enhance both internal and secreted PGRN at sub-µM concentrations”. For the compound `CC(=O)Nc1ccc(C(=O)Nc2ccccc2N)cc1` [CI-994], the “enhancement of secreted PGRN-Luc signal” value was “either weakly or entirely unable to enhance secreted PGRN”.

The next test relates to GRN mRNA. The test can be described thus: qPCR of GRN mRNA in human NPCs (enhancer screen and follow-up). Format: cell-based. To be noted: human NPCs, 24 h, dose 1 µM, relative to DMSO. How it is done: All compounds were purchased from commercial vendors. All compounds were made at 1000 × stocks in DMSO (Sigma Aldrich #D2438), except for sodium valproate, which was dissolved in ddH2O. NPCs and neurons were generated and maintained as described above. For treatment, the stock compounds were diluted 1:1000 in NPC media (final DMSO concentration 0.1%), which was then applied to confluent NPCs or 18-day differentiated neurons derived from confluent NPC cultures for indicated time periods.
RNA was generated from each well of a 6-well treated plate of NPCs or neurons. First, media from each well was aspirated, and washed with 1 mL of dPBS. Wells were then lysed with 1 mL TRIzol Reagent (ThermoFisher #11,596,026). Wells were then incubated at room temperature for 5 min, and then RNA was extracted using the DirectZol RNA MiniPrep Kit (Zymo Research #R2052). RNA was stored at − 80 °C until further use. cDNA was generated using the High-Capacity cDNA synthesis Kit with RNase inhibitor (ThermoFisher #4,368,814) using 1000–1200 ng RNA per reaction. cDNA was either used immediately or stored at -20 °C until use, where it was then diluted 1:4 with DNase/RNase-free water (Invitrogen #10,977–015).
qPCR was conducted using the Roche 480 Light Cycler in a 384-well plate. To each well was added 5 μL of TaqMan 2X Gene Expression Master Mix (ThermoFisher #4,369,510), 0.5 μL of 20X TaqMan primer probe (ThermoFisher, GRN: Hs00963707_g1, GAPDH: Cat.#432924E), 0.5 μL of DNase/RNase-free H2O, and 4 μL of above diluted cDNA. Results were normalized to GAPDH, and replicate mean values and standard error of the mean are reported.
For the compound `CCn1cc(-c2ccnc3[nH]c(-c4cccc(CN(C)C)c4)cc23)c(-c2ccc(NC(=O)N(C)C)cc2)n1` [GSK1070916], the “GRN Fold-change (Norm. to GAPDH) ± Std. Error” value is reported as 1.45 ± 0. Consider `CN(C)Cc1c(C(=O)NCCOc2ccc(C(=O)NO)cc2)oc2ccccc12` [PCI-24781], for which the “GRN Fold-change (Norm. to GAPDH) ± Std. Error” value amounted to 3.68 ± 0.27.

As to `COc1cc2nc(N3CCCN(C)CC3)nc(NC3CCN(Cc4ccccc4)CC3)c2cc1OC` [BIX01294], the “GRN Fold-change (Norm. to GAPDH) ± Std. Error” value is on record as 0.80 ± 0.04.

Still in this test, the particulars now being: human NPCs, 24 h, dose 10 µM, relative to DMSO.
Take `c1ccc([C@@H]2C[C@H]2NC2CCNCC2)cc1` [GSK-LSD1]: the “GRN Fold-change (Norm. to GAPDH) ± Std. Error” value was found to be 0.96 ± 0.11. Same read-out and setting: the figure for `COC1CCC(C(=O)c2ccc3nc4c(cc3c2)CCCO4)CC1` (stereo not shown) [JNJ16259685] is 1.00 ± 0.10. On the same count and under the same terms, the value for `O=C(CCCCCCNC(=O)c1cnc(N(c2ccccc2)c2ccccc2)nc1)NO` [ACY-1215] was 3.63 ± 0.57; that for `CCOC(=O)Nc1cc(-c2ccc(C)c(NS(C)(=O)=O)c2)nn2c(C)nnc12` [Bromosporine, bromosporine] was 3.44 ± 0.25. Take `Cc1cc(C)c(CNC(=O)c2cc(-c3ccc(CN4CCOCC4)cc3)cc3c2cnn3C2CCCC2)c(=O)[nH]1` [EPZ005687]: the “GRN Fold-change (Norm. to GAPDH) ± Std. Error” value was 1.18 ± 0.10. Still for that read-out and setting: the figure for (-)-Eseroline fumarate is 1.10 ± 0; for `N#CC[C@H](C1CCCC1)n1cc(-c2ncnc3[nH]ccc23)cn1` [Ruxolitinib] it is 1.26 ± 0.04. Same read-out and setting: the value for `O=C(NC1CC1)c1cc(-c2cccs2)on1` [Compound Z220650400] was 1.17 ± 0.10; that for `NNCCc1ccc(NC(=O)CCCc2ccccc2)cc1` [Bizine] was 0.92 ± 0.12; that for `Cc1c(OCC(F)(F)F)ccnc1C[S+]([O-])c1nc2ccccc2[nH]1` (stereo not shown) [Lanosoprazole] was 1.37 ± 0.23.

For the compound `CCOC(=O)CCNc1cc(N2CCc3ccccc3CC2)nc(-c2ccccn2)n1` [GSK-J4], the “GRN Fold-change (Norm. to GAPDH) ± Std. Error” value is recorded as 0.76 ± 0.03. The same measure, in the same setting: the value for `Cc1c[nH]c(-c2cnc(NCCNc3ccc(C#N)cn3)nc2-c2ccc(Cl)cc2Cl)n1` [CHIR-99021] was 0.79 ± 0.06. Still for that read-out and setting: the value for `O=C(Nc1c(Cl)cncc1Cl)c1ccc(OC(F)F)c(OCC2CC2)c1` [Roflumilast] was 1.01 ± 0.09; that for `Cn1cc(-c2ccncc2)c(-c2ccc(OCc3ccc4ccccc4n3)cc2)n1` [PF-2545920] was 1.29 ± 0.16.

The same test, now with this note: human NPCs, 24 h, dose 10 µM, relative to DMSO; listed as bromosporine.
Regarding `CCOC(=O)Nc1cc(-c2ccc(C)c(NS(C)(=O)=O)c2)nn2c(C)nnc12` [Bromosporine, bromosporine], the “GRN Fold-change (Norm. to GAPDH) ± Std. Error” value is “active enhancers of GRN mRNA”.

The same test, now with this note: human NPCs, 24 h, dose 25 µM, relative to DMSO.
On to (-)-Eseroline fumarate, for which the “GRN Fold-change (Norm. to GAPDH) ± Std. Error” value was 0.79 ± 0.46. Still for that read-out and setting: the figure for `CNC(=O)Oc1ccc2c(c1)[C@]1(C)CCN(C)[C@@H]1N2C` [Eserine] is 0.73 ± 0.15.

In the next test the test system is PGRN protein levels. Description: PGRN quantification (Jess) in human NPCs. Format: cell-based. The following applies: 100 nM, 24 h. How it is done:
PGRN capillary gel electrophoresis experiments were performed using Jess (Bio-Techne) and data were processed and analyzed using Compass for Simple Western software (version 6.0). Runs were conducted using EZ Standard Pack 1 12-230 kDa (Bio-Techne PS-ST01EZ-8), 12-230 kDa pre-filled plates (PS-PP03), 12-230 kDa separation module (SMW004), anti-rabbit HRP detection ([…]-001), and total protein detection modules (DM-TP01, biotin labeling reagent 042-973) according to the manufacturer's instructions, and with anti-PGRN primary (Abcam ab208777) diluted 1:50 in milk-free antibody dilution buffer (043-524). […] All intensity quantifications are normalized to the total protein assay quantification unless otherwise indicated. NPCs were cultured normally in 6-well plates as described previously. Upon reaching confluency, DMSO or MLN-4924 (Cayman #15,217, 10 mM stock in DMSO) were diluted 1:5000 into NPC media with growth factors. 1 mL of media was aspirated from the cell cultures, and 1 mL of MLN-4924 or DMSO dilutions were then added to respective wells (final well concentration: 1 μM MLN-4924 in select wells, 0.01% DMSO for all wells). Plates returned to the incubator. […] Plates returned to the incubator. After 4 h, to the indicated wells is directly added 1 μL 2 mM mivebresib (MedChem Express HY-100015) in DMSO for a final concentration of 1 μM, or 1 μL DMSO. All plates were returned to the incubator overnight. The next day, 24 h from the addition of mivebresib, plates were removed from the incubator, and all wells were washed with 2 mL PBS, and then lysed in 300 μL M-PER lysis buffer with protease inhibitors. Cells were allowed to lyse for 15 min at 4 °C with light nutation, and then lysate was transferred to a 1.5-mL Eppendorf tube which was then spun down at 20 k rcf at 4 °C for 10 min. 200 μL of supernatant was then transferred to a fresh, labeled Eppendorf rube, which was then stored at - 20 °C prior to further analysis. Sample concentration was quantified using the BCA assay as described above, and normalized to 250 μg/mL in M-PER lysis buffer prior to PGRN quantification using the Jess. NPCs were cultured normally as described previously. 6-well plates were seeded at 300,000 cells/well in 2 mL of NPC media with EGF, bFGF, and heparin as described above. Cells were allowed to grow to confluency for three nights at 37 °C with 5% CO2. […] These solutions were then diluted 1:10 in NPC media with growth factors containing 0.2% DMSO to make 100 nM compound solutions. Treatment wells were washed with 2 mL PBS prior to addition of 2 mL NPC media with growth factors containing compound (or DMSO only) at indicated concentrations (3 replicates per condition, 6 DMSO replicates). Plates were then allowed to incubate at 37 °C with 5% CO2 for 24 h. After 24 h, cells were removed from the incubator, washed with 1 mL PBS, and then lysed with 500 μL M-PER lysis buffer (Thermo Fisher #78,501) with 1 cOmplete Mini, EDTA-free protease inhibitor added (Sigma-Aldrich#11,836,170,001) per 15 mL lysis buffer. Plates were allowed to nutate at 4 °C for 15 min before transferring the lysate to 1.5 mL Eppendorf tubes, which were then spun down at 20,000 rcf at 4 °C for 10 min. 400 μL of the supernatant was then transferred to fresh 1.5-mL Eppendorf tubes, which were then frozen down at - 80 °C prior to further use. Samples were removed from the - 80 °C and concentrations were determined via BCA assay (Thermo Scientific #23,227) using a pre-diluted BSA standard (Life Technologies #23,208) on a 96-well polystyrene plate (Thermo Fisher #12,565,500). Samples were diluted to 0.25 mg/mL using M-PER lysis buffer prior to PGRN quantification using the Jess. NPCs were cultured as described above, and seeded onto coated 24-well plates at 150,000 cells/well in 1 mL NPC media with growth factors. Plates were allowed to grow to ~ 100% confluency for three nights at 37 °C with 5% CO2. […] Plates were allowed to incubate overnight at 37 °C with 5% CO2 for 24 h. […]
Take `COCc1nc2cnc3cc(-c4c(C)noc4C)c(OC[C@H]4CCNC4)cc3c2n1[C@H](C)c1ccccc1` [iBET-BD1]: the “enhancement of PGRN protein levels” value was “unable to enhance PGRN protein levels”.

On to `CCNC(=O)c1cc2c(-c3cc(C(C)(C)O)ccc3Oc3c(C)cc(F)cc3C)cn(C)c(=O)c2[nH]1` [ABBV-744], for which the “enhancement of PGRN protein levels” value is ~ 30%.

Still in this test, the particulars now being: 24 h, various doses.
`CCNC(=O)c1cc2c(-c3cc(C(C)(C)O)ccc3Oc3c(C)cc(F)cc3C)cn(C)c(=O)c2[nH]1` [ABBV-744]: the “PGRN protein levels, dose-response” value is listed as “mid to high nM concentrations were sufficient to enhance PGRN protein levels”.
